# Square brackets hold non-standard residues; d marks the D form. Ends that are not written are not given here. pT = C[C@@H](OP(=O)(O)O)[C@H](N)C(=O)O; pS = N[C@@H](COP(=O)(O)O)C(=O)O
# Columns and labels:
# [1] = test system: unexpanded lymphocyte cultures (CD8^+ T cells); assay: ICS for MHC-I-pP reactivity of lymphocyte cultures without expansion (Table 23, No Expansion)
# [2] = test system: expanded lymphocyte cultures from deceased donor livers, cirrhotic livers and HCC; assay: ICS for MHC-I-pP reactivity of liver-derived lymphocyte cultures after phosphopeptide-specific expansion; format: cell-based, human; conditions: for ppCTL response, Deceased Donor Liver Do 2 / ppCTL response, Deceased Donor Liver Do 3 / ppCTL response, Deceased Donor Liver Do 4 / ppCTL response, Deceased Donor Liver Do 6 / ppCTL response, End-stage Liver Cirrhosis IHL 11 / ppCTL response, End-stage Liver Cirrhosis IHL 12 / ppCTL response, End-stage Liver Cirrhosis IHL 13 / ppCTL response, End-stage Liver Cirrhosis IHL 15 / ppCTL response, HCC Distal HCC 1 / ppCTL response, HCC Tumor HCC 1 / ppCTL response, HCC Distal HCC 4 / ppCTL response, HCC Distal HCC 9 / ppCTL response, HCC Tumor HCC 9 / ppCTL response, HCC Distal HCC 12: pP-specifically expanded culture; for ppCTL response, HCC Distal HCC 1: HCC 1 Distal; for ppCTL response, HCC Tumor HCC 1: HCC 1 Tumor; for ppCTL response, HCC Distal HCC 4: HCC 4 Distal; for ppCTL response, HCC Distal HCC 9: HCC 9 Distal; for ppCTL response, HCC Tumor HCC 9: HCC 9 Tumor; for ppCTL response, HCC Distal HCC 12: HCC 12 Distal
# CD8^+ T cells (PBMCs) = assay: Intracellular cytokine staining (ICS) of PBMCs after 7 days of stimulation with MHC-I-pP (healthy donors, HH patients); format: cell-based, human; conditions: for Reactive CD8^+ T cell population, HH2: HH patient HH2; for Reactive CD8^+ T cell population, HH3: HH patient HH3; for Reactive CD8^+ T cell population, HH6: HH patient HH6; for Reactive CD8^+ T cell population, HH8: HH patient HH8; for Reactive CD8^+ T cell population, HH11: HH patient HH11; for Reactive CD8^+ T cell population, HD1: Healthy donor HD1; for Reactive CD8^+ T cell population, HD4: Healthy donor HD4; for Reactive CD8^+ T cell population, HD5: Healthy donor HD5
# Method in brief: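 PBMCs or liver lymphocytes from HLA-A*0201-positive healthy donors and hereditary hemochromatosis patients were stimulated for 7 days with HLA-A*0201-restricted phosphopeptides and no added cytokines. After exclusion of doublets and dead cells with a fixable viability dye, CD3^+CD8^+ cells were analysed by intracellular staining for IFN-γ and TNF-α, plus CD107a where needed.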
# [3] = test system: expanded TIL / IHL cultures; assay: ICS for MHC-I-pP reactivity of liver-derived lymphocyte cultures after unspecific rapid expansion protocol (REP); format: cell-based, human
Substance,"Reactive CD8^+ T cells, No Expansion, HH6 [1]","Reactive CD8^+ T cells, pP-specific Expansion, Do2 [2]","Reactive CD8^+ T cells, pP-specific Expansion, Do4 [2]","Reactive CD8^+ T cells, pP-specific Expansion, HH6 [2]","ppCTL response, Deceased Donor Liver Do 2 [2]","ppCTL response, Deceased Donor Liver Do 3 [2]","ppCTL response, Deceased Donor Liver Do 4 [2]","ppCTL response, Deceased Donor Liver Do 6 [2]","ppCTL response, End-stage Liver Cirrhosis IHL 11 [2]","ppCTL response, End-stage Liver Cirrhosis IHL 12 [2]","ppCTL response, End-stage Liver Cirrhosis IHL 13 [2]","ppCTL response, End-stage Liver Cirrhosis IHL 15 [2]","ppCTL response, HCC Distal HCC 1 [2]","ppCTL response, HCC Tumor HCC 1 [2]","ppCTL response, HCC Distal HCC 4 [2]","ppCTL response, HCC Distal HCC 9 [2]","ppCTL response, HCC Tumor HCC 9 [2]","ppCTL response, HCC Distal HCC 12 [2]","Reactive CD8^+ T cell population, HH2 (CD8^+ T cells (PBMCs))","Reactive CD8^+ T cell population, HH3 (CD8^+ T cells (PBMCs))",further results
"KAFsPVRSV: ID2 phosphopeptide, HLA-A*0201 (KAF[pS]PVRSV; listed as Homo sapiens)",0 (<0.25% reactive CD8^-+ T cells),0 (<0.25% reactive CD8^-+ T cells),0 (<0.25% reactive CD8^-+ T cells),0 (<0.25% reactive CD8^-+ T cells),1 (0.25-2.5% reactive CD8-+ T cells),0 (<0.25% reactive CD8-+ T cells),0 (<0.25% reactive CD8-+ T cells),0 (<0.25% reactive CD8-+ T cells),0 (<0.25% reactive CD8-+ T cells),0 (<0.25% reactive CD8-+ T cells),0 (<0.25% reactive CD8-+ T cells),0 (<0.25% reactive CD8-+ T cells),0 (<0.25% reactive CD8-+ T cells),0 (<0.25% reactive CD8-+ T cells),0 (<0.25% reactive CD8-+ T cells),0 (<0.25% reactive CD8-+ T cells),0 (<0.25% reactive CD8-+ T cells),0 (<0.25% reactive CD8-+ T cells),0 (<0.25% reactive CD8^-+ T cells),0 (<0.25% reactive CD8^-+ T cells),"Reactive CD8^+ T cell population, HH6 (CD8^+ T cells (PBMCs)): 0 (<0.25% reactive CD8^-+ T cells); Reactive CD8^+ T cell population, HH8 (CD8^+ T cells (PBMCs)): 0 (<0.25% reactive CD8^-+ T cells); Reactive CD8^+ T cell population, HH11 (CD8^+ T cells (PBMCs)): 0 (<0.25% reactive CD8^-+ T cells); Reactive CD8^+ T cell population, HD1 (CD8^+ T cells (PBMCs)): 0 (<0.25% reactive CD8^-+ T cells); Reactive CD8^+ T cell population, HD4 (CD8^+ T cells (PBMCs)): 0 (<0.25% reactive CD8^-+ T cells); Reactive CD8^+ T cell population, HD5 (CD8^+ T cells (PBMCs)): 0 (<0.25% reactive CD8^-+ T cells); Reactive CD8^+ T cells, Non-specific Expansion, Do2 [3]: 0 (<0.25% reactive CD8^-+ T cells); Reactive CD8^+ T cells, Non-specific Expansion, Do4 [3]: 0 (<0.25% reactive CD8^-+ T cells); Reactive CD8^+ T cells, Non-specific Expansion, HH6 [3]: 0 (<0.25% reactive CD8^-+ T cells)"
"FLDtPIAKV: NKD1 phosphopeptide, HLA-A*0201 (FLD[pT]PIAKV; listed as Homo sapiens)",0 (<0.25% reactive CD8^-+ T cells),0 (<0.25% reactive CD8^-+ T cells),0 (<0.25% reactive CD8^-+ T cells),2 (2.5-5.0% reactive CD8^-+ T cells),0 (<0.25% reactive CD8-+ T cells),0 (<0.25% reactive CD8-+ T cells),0 (<0.25% reactive CD8-+ T cells),0 (<0.25% reactive CD8-+ T cells),0 (<0.25% reactive CD8-+ T cells),0 (<0.25% reactive CD8-+ T cells),0 (<0.25% reactive CD8-+ T cells),0 (<0.25% reactive CD8-+ T cells),0 (<0.25% reactive CD8-+ T cells),0 (<0.25% reactive CD8-+ T cells),0 (<0.25% reactive CD8-+ T cells),0 (<0.25% reactive CD8-+ T cells),0 (<0.25% reactive CD8-+ T cells),0 (<0.25% reactive CD8-+ T cells),0 (<0.25% reactive CD8^-+ T cells),0 (<0.25% reactive CD8^-+ T cells),"Reactive CD8^+ T cell population, HH6 (CD8^+ T cells (PBMCs)): 0 (<0.25% reactive CD8^-+ T cells); Reactive CD8^+ T cell population, HH8 (CD8^+ T cells (PBMCs)): 0 (<0.25% reactive CD8^-+ T cells); Reactive CD8^+ T cell population, HH11 (CD8^+ T cells (PBMCs)): 0 (<0.25% reactive CD8^-+ T cells); Reactive CD8^+ T cell population, HD1 (CD8^+ T cells (PBMCs)): 0 (<0.25% reactive CD8^-+ T cells); Reactive CD8^+ T cell population, HD4 (CD8^+ T cells (PBMCs)): 0 (<0.25% reactive CD8^-+ T cells); Reactive CD8^+ T cell population, HD5 (CD8^+ T cells (PBMCs)): 0 (<0.25% reactive CD8^-+ T cells); Reactive CD8^+ T cells, Non-specific Expansion, Do2 [3]: 1 (0.25-2.5% reactive CD8^-+ T cells); Reactive CD8^+ T cells, Non-specific Expansion, Do4 [3]: 0 (<0.25% reactive CD8^-+ T cells); Reactive CD8^+ T cells, Non-specific Expansion, HH6 [3]: 0 (<0.25% reactive CD8^-+ T cells)"
"SMTRsPPRV: SRSF8 phosphopeptide, HLA-A*0201 (SMTR[pS]PPRV; listed as Homo sapiens)",0 (<0.25% reactive CD8^-+ T cells),0 (<0.25% reactive CD8^-+ T cells),0 (<0.25% reactive CD8^-+ T cells),0 (<0.25% reactive CD8^-+ T cells),1 (0.25-2.5% reactive CD8-+ T cells),0 (<0.25% reactive CD8-+ T cells),0 (<0.25% reactive CD8-+ T cells),0 (<0.25% reactive CD8-+ T cells),0 (<0.25% reactive CD8-+ T cells),0 (<0.25% reactive CD8-+ T cells),0 (<0.25% reactive CD8-+ T cells),6 (>20% reactive CD8-+ T cells),0 (<0.25% reactive CD8-+ T cells),0 (<0.25% reactive CD8-+ T cells),0 (<0.25% reactive CD8-+ T cells),0 (<0.25% reactive CD8-+ T cells),0 (<0.25% reactive CD8-+ T cells),0 (<0.25% reactive CD8-+ T cells),0 (<0.25% reactive CD8^-+ T cells),0 (<0.25% reactive CD8^-+ T cells),"Reactive CD8^+ T cells, No Expansion, Do4 ([1]; Do4): 4 (7.5-10% reactive CD8^-+ T cells); Reactive CD8^+ T cell population, HH6 (CD8^+ T cells (PBMCs)): 0 (<0.25% reactive CD8^-+ T cells); Reactive CD8^+ T cell population, HH8 (CD8^+ T cells (PBMCs)): 0 (<0.25% reactive CD8^-+ T cells); Reactive CD8^+ T cell population, HH10 (CD8^+ T cells (PBMCs); HH patient HH10): 0 (<0.25% reactive CD8^-+ T cells); Reactive CD8^+ T cell population, HH11 (CD8^+ T cells (PBMCs)): 0 (<0.25% reactive CD8^-+ T cells); Reactive CD8^+ T cell population, HD1 (CD8^+ T cells (PBMCs)): 0 (<0.25% reactive CD8^-+ T cells); Reactive CD8^+ T cell population, HD2 (CD8^+ T cells (PBMCs); Healthy donor HD2): 0 (<0.25% reactive CD8^-+ T cells); Reactive CD8^+ T cell population, HD3 (CD8^+ T cells (PBMCs); Healthy donor HD3): 0 (<0.25% reactive CD8^-+ T cells); Reactive CD8^+ T cell population, HD4 (CD8^+ T cells (PBMCs)): 0 (<0.25% reactive CD8^-+ T cells); Reactive CD8^+ T cell population, HD5 (CD8^+ T cells (PBMCs)): 0 (<0.25% reactive CD8^-+ T cells); Reactive CD8^+ T cells, Non-specific Expansion, Do2 [3]: 0 (<0.25% reactive CD8^-+ T cells); Reactive CD8^+ T cells, Non-specific Expansion, Do4 [3]: 0 (<0.25% reactive CD8^-+ T cells); Reactive CD8^+ T cells, Non-specific Expansion, HH6 [3]: 0 (<0.25% reactive CD8^-+ T cells)"
